These results are taken from patent publication US20100130737A1, “Regulating Agent of GPR34 Receptor Function” (TAKEDA PHARMACEUTICAL COMPANY LIMITED, priority 2005, published 2010).

For orientation: melting point means the temperature, or range, at which the solid turns liquid. The molecule `O=C(Cc1ccc(-c2ccccc2)cc1)NC1(C(=O)O)Cc2ccc(-c3ccc(Cl)cc3)cc2C1` (stereo not drawn) [Example B177, 2-[(Biphenyl-4-ylacetyl)amino]-5-(4-chlorophenyl)indan-2-carboxylic acid] gave a melting point of 240 to 243 °C.
Next, `O=C(Cc1ccccn1)NC1(C(=O)O)Cc2ccc(-c3ccc(Cl)cc3)cc2C1` (stereo not drawn) [Example B178, 5-(4-Chlorophenyl)-2-[(pyridin-2-ylacetyl)amino]indan-2-carboxylic acid]: 189 °C.
The value for `O=C(NC1(C(=O)O)Cc2ccc(-c3ccc(Cl)cc3)cc2C1)[C@@H](O)c1ccccc1` (stereo partly drawn) [Example B179, 5-(4-Chlorophenyl)-2-{[(2S)-2-hydroxy-2-phenylacetyl]amino}indan-2-carboxylic acid] was 156 °C.
The value for `O=C(Nc1ccc(F)cc1)NC1(C(=O)O)Cc2ccc(-c3ccc(Cl)cc3)cc2C1` (stereo not drawn) [Example B180, 5-(4-Chlorophenyl)-2-({[(4-fluorophenyl)amino]carbonyl}amino)indan-2-carboxylic acid] was 177 °C; that for `O=C(Cc1cccc(OCc2ccccc2)c1)NC1(C(=O)O)Cc2ccc(-c3ccc(Cl)cc3)cc2C1` (stereo not drawn) [Example B181, 2-({[3-(Benzyloxy)phenyl]acetyl}amino)-5-(4-chlorophenyl)indan-2-carboxylic acid] was 207 °C; that for `O=C(Cc1ccc(Oc2ccccc2)cc1)NC1(C(=O)O)Cc2ccc(-c3ccc(Cl)cc3)cc2C1` (stereo not drawn) [Example B183, 5-(4-Chlorophenyl)-2-{[(4-phenoxyphenyl)acetyl]amino)indan-2-carboxylic acid] was 227 to 228 °C.
Regarding `O=C(Cc1ccc(OCc2ccc(F)cc2)cc1)NC1(C(=O)O)Cc2ccc(-c3ccccc3Cl)cc2C1` (stereo not drawn) [Example B184, 5-(2-Chlorophenyl)-2-[({4-[(4-fluorobenzyl)oxy]phenyl}acetyl}amino}indan-2-carboxylic acid], the melting point lay in the range of 213 to 215 °C.
The value for `O=C(Cc1ccc(OCc2ccc(F)cc2)cc1)NC1(C(=O)O)Cc2ccc(-c3cccc(Cl)c3)cc2C1` (stereo not drawn) [Example B185, 5-(3-Chlorophenyl)-2-[({4-[(4-fluorobenzyl)oxy]phenyl}acetyl)amino]indan-2-carboxylic acid] was 173 to 174 °C; that for `O=C(Cc1ccc(OCc2ccc(F)cc2)cc1)NC1(C(=O)O)Cc2ccc(-c3ccc(Cl)s3)cc2C1` (stereo not drawn) [Example B186, 5-(5-Chloro-2-thienyl)-2-[({4-[(4-fluorobenzyl)oxy]phenyl}acetyl)amino]indan-2-carboxylic acid] was 214 to 216 °C; that for `CC(C)(C)OC(=O)c1cccc(COc2ccc(CC(=O)NC3(C(=O)O)Cc4ccc(-c5ccc(Cl)cc5)cc4C3)cc2)c1` (stereo not drawn) [Example B187, 2-{[(4-{[3-(tert-Butoxycarbonyl)benzyl]oxy}phenyl)acetyl]amino}-5-(4-chlorophenyl)indan-2-carboxylic acid] was 177 to 179 °C.
The value for `O=C(Cc1ccc(OCc2cccc(C(=O)O)c2)cc1)NC1(C(=O)O)Cc2ccc(-c3ccc(Cl)cc3)cc2C1` (stereo not drawn) [Example B188, 2-[({4-[(3-Carboxybenzyl)oxy]phenyl}acetyl)amino]-5-(4-chlorophenyl)indan-2-carboxylic acid] was 220 to 222 °C.
The value for `CC(C)(C)OC(=O)c1ccccc1COc1ccc(CC(=O)NC2(C(=O)O)Cc3ccc(-c4ccc(Cl)cc4)cc3C2)cc1` (stereo not drawn) [Example B189, 2-{[(4-{[2-(tert-Butoxycarbonyl)benzyl]oxy}phenyl)acetyl]amino}-5-(4-chlorophenyl)indan-2-carboxylic acid] was 170 to 171 °C; that for `O=C(Cc1ccc(OCc2ccccc2C(=O)O)cc1)NC1(C(=O)O)Cc2ccc(-c3ccc(Cl)cc3)cc2C1` (stereo not drawn) [Example B190, 2-[({4-[(2-Carboxybenzyl)oxy]phenyl}acetyl)amino]-5-(4-chlorophenyl)indan-2-carboxylic acid] was 209 to 211 °C; that for `O=C(Cc1ccc(OCc2ccc(F)cc2)cc1)NC1(c2nn[nH]n2)Cc2ccc(-c3ccc(Cl)cc3)cc2C1` (stereo not drawn) [Example B191, N-[5-(4-Chlorophenyl)-2-(2H-tetrazol-5-yl)-2,3-dihydro-1H-inden-2-yl]-2-{4-[(4-fluorobenzyl)oxy]phenyl}acetamide] was 108 to 110 °C.
The molecule `Nc1cccc(COc2ccc(CC(=O)NC3(C(=O)O)Cc4ccc(-c5ccc(Cl)cc5)cc4C3)cc2)c1` (stereo not drawn) [Example B192, 2-[({4-[(3-Aminobenzyl)oxy]phenyl}acetyl)amino]-5-(4-chlorophenyl)indan-2-carboxylic acid] registered a melting point of 191 to 192 °C.
The value for `CS(=O)(=O)Nc1cccc(COc2ccc(CC(=O)NC3(C(=O)O)Cc4ccc(-c5ccc(Cl)cc5)cc4C3)cc2)c1` (stereo not drawn) [Example B193, 5-(4-Chlorophenyl)-2-({[4-({3-[(methylsulfonyl)amino]benzyl)oxy)phenyl]acetyl}amino)indan-2-carboxylic acid] was 169 to 170 °C; that for `Nc1ccccc1COc1ccc(CC(=O)NC2(C(=O)O)Cc3ccc(-c4ccc(Cl)cc4)cc3C2)cc1` (stereo not drawn) [Example B194, 2-[({4-[(2-Aminobenzyl)oxy]phenyl}acetyl)amino]-5-(4-chlorophenyl)indan-2-carboxylic acid] was 149 to 150 °C; that for `Cc1c(C(=O)NC2(C(=O)O)Cc3cccc(Br)c3C2)oc2cc(-c3ccc(Cl)cc3)ccc12` (stereo not drawn) [Example C113, 4-Bromo-2-({[6-(4-chlorophenyl)-3-methyl-1-benzofuran-2-yl]carbonyl}amino)indan-2-carboxylic acid] was 230 °C.
The value for `Cc1c(C(=O)NC2(C(=O)O)Cc3ccc(Br)cc3C2)oc2cc(-c3ccc(Cl)cc3)ccc12` (stereo not drawn) [Example C114, 5-Bromo-2-({[6-(4-chlorophenyl)-3-methyl-1-benzofuran-2-yl]carbonyl}amino)indan-2-carboxylic acid] was 227 °C.
On to `Cc1c(C(=O)N[C@H](Cc2ccc(OCc3ccccc3)cc2)C(=O)O)oc2cc(-c3ccc(Cl)cc3)ccc12` [Example C116, O-Benzyl-N-{[6-(4-chlorophenyl)-3-methyl-1-benzofuran-2-yl]carbonyl}-D-tyrosine], for which the melting point is 113 to 114 °C.
The value for `Cc1c(C(=O)N[C@@H](Cc2ccc(OCc3ccsc3)cc2)C(=O)O)oc2cc(-c3ccc(Cl)cc3)ccc12` [Example C118, N-{[6-(4-Chlorophenyl)-3-methyl-1-benzofuran-2-yl]carbonyl}-O-(3-thienylmethyl)-L-tyrosine] was 111 to 113 °C; that for `Cc1c(C(=O)N[C@@H](Cc2ccc(OCc3ccoc3)cc2)C(=O)O)oc2cc(-c3ccc(Cl)cc3)ccc12` [Example C119, N-{[6-(4-Chlorophenyl)-3-methyl-1-benzofuran-2-yl]carbonyl}-O-(3-furylmethyl)-L-tyrosine] was 108 to 110 °C; that for `O=C(N[C@@H](Cc1ccc(OCc2ccoc2)cc1)C(=O)O)c1cc2ccc(-c3ccc(Cl)cc3)cc2s1` [Example C124, N-{[6-(4-Chlorophenyl)-1-benzothiophene-2-yl]carbonyl}-O-(3-furylmethyl) tyrosine] was 200 to 201 °C.
Next, `O=C(N[C@@H](Cc1ccc(OCc2ccoc2)cc1)C(=O)O)c1cc2cc(-c3ccc(Cl)cc3)ccc2s1` [Example C125, N-{[5-(4-Chlorophenyl)-1-benzothiophene-2-yl]carbonyl}-O-(3-furylmethyl) tyrosine]: 172 to 173 °C.
Next, `O=C(N[C@@H](Cc1ccc(OCc2cccc(F)c2)cc1)C(=O)O)c1cc2cc(-c3ccc(Cl)cc3)ccc2s1` [Example C126, N-{[5-(4-Chlorophenyl)-1-benzothiophene-2-yl]carbonyl}-O-(3-fluorobenzyl) tyrosine]: 184 to 185 °C; `Cc1cccc(COc2ccc(C[C@H](NC(=O)c3cc4cc(-c5ccc(Cl)cc5)ccc4s3)C(=O)O)cc2)c1` [Example C127, N-{[5-(4-Chlorophenyl)-1-benzothiophene-2-yl]carbonyl}-O-(3-methylbenzyl)tyrosine]: 192 to 193 °C; `COc1cccc(COc2ccc(C[C@H](NC(=O)c3cc4cc(-c5ccc(Cl)cc5)ccc4s3)C(=O)O)cc2)c1` [Example C128, N-{[5-(4-Chlorophenyl)-1-benzothiophene-2-yl]carbonyl}-O-(3-methoxybenzyl)tyrosine]: 175 to 177 °C.
Take `CC(C)Oc1ccc(-c2ccc3sc(C(=O)N[C@@H](Cc4ccc(OCc5ccc(F)cc5)cc4)C(=O)O)cc3c2)cc1` [Example C130, O-(4-Fluorobenzyl)-N-{[5-(4-isopropoxyphenyl)-1-benzothiophene-2-yl]carbonyl}tyrosine]: the melting point fell in the range of 204 to 205 °C.
The value for `Cc1ccc(COc2ccc(C[C@H](NC(=O)c3cc4cc(-c5ccc(Cl)cc5)ccc4s3)C(=O)O)cc2)cc1` [Example C134, N-{[5-(4-Chlorophenyl)-1-benzothiophene-2-yl]carbonyl}-O-(4-methylbenzyl)tyrosine] was 208 °C.
The molecule `O=C(N[C@@H](Cc1ccc(OCc2ccc(Cl)cc2)cc1)C(=O)O)c1cc2cc(-c3ccc(Cl)cc3)ccc2s1` [Example C135, O-(4-Chlorobenzyl)-N-{[5-(4-chlorophenyl)-1-benzothiophene-2-yl]carbonyl}tyrosine] had a melting point of 196 to 197 °C.
Next, `N#Cc1ccc(COc2ccc(C[C@H](NC(=O)c3cc4cc(-c5ccc(Cl)cc5)ccc4s3)C(=O)O)cc2)cc1` [Example C136, N-{[5-(4-Chlorophenyl)-1-benzothiophene-2-yl]carbonyl)-O-(4-cyanobenzyl)tyrosine]: 164 °C; `CCc1ccc(COc2ccc(C[C@H](NC(=O)c3cc4cc(-c5ccc(Cl)cc5)ccc4s3)C(=O)O)cc2)cc1` [Example C137, N-{[5-(4-Chlorophenyl)-1-benzothiophene-2-yl]carbonyl}-O-(4-ethylbenzyl)tyrosine]: 205 °C.
Next, `O=C(N[C@@H](Cc1ccc(OCc2ccc(C(F)(F)F)cc2)cc1)C(=O)O)c1cc2cc(-c3ccc(Cl)cc3)ccc2s1` [Example C138, N-{[5-(4-Chlorophenyl)-1-benzothiophene-2-yl]carbonyl}-O-[4-(trifluoromethyl)benzyl]tyrosine]: 198 °C.
